Assays:
Assay type in all cases: functional, cell-based
PBMC [1] = test: Antiinflammatory activity in human PBMC assessed as inhibition of LPS-induced IL-1beta expression pretreated 1 hr before LPS challenge followed by incubated for 16 hrs by flow cytometry
PBMC [2] = test: Antiinflammatory activity in human PBMC assessed as inhibition of LPS-induced IL-8 expression pretreated 1 hr before LPS challenge followed by incubated for 16 hrs by flow cytometry
PBMC [3] = test: Antiinflammatory activity in human PBMC assessed as inhibition of LPS-induced TNFalpha expression pretreated 1 hr before LPS challenge followed by incubated for 16 hrs by flow cytometry

Structure (SMILES)	IC50 (PBMC [1]) [nM]	IC50 (PBMC [2]) [µM]	IC50 (PBMC [3]) [nM]
Cc1cc(O)c2c(c1O)C(=O)C[C@@H]1[C@](C)(C(=O)O)CCC[C@@]21C	> 10000	> 10	8
C[C@@H]1C[C@H]2[C@@H]3CCC4=CC(=O)C=C[C@]4(C)[C@@]3(F)[C@@H](O)C[C@]2(C)[C@@]1(O)C(=O)CO [DEXAMETHASONE]	8	0.009	2
C[C@]12CCC3=C(CC[C@@H]4[C@](C)(C(=O)O)CCC[C@@]34C)[C@H]1OC[C@@H]2O	> 10000	0.001	> 10000
C=C1C[C@@]23CC[C@H]4[C@@](C)(CCC[C@@]4(C)C(=O)O)[C@@H]2CC[C@@H]1C3 [KAURENOIC ACID]	10	7.7	2
C[C@@]12CCC[C@@](C)(C(=O)O)[C@H]1CC(=O)[C@]13C[C@@H](CO)[C@H](CC[C@H]12)C3	100	> 10	100
C=C[C@]1(C)C=C2C(=O)C[C@H]3[C@@](C)(CCC[C@@]3(C)C(=O)O)[C@@H]2CC1	30	> 10	7
C[C@@]12CCC[C@@](C)(C(=O)O)[C@H]1CC(=O)[C@]13CC(=O)[C@H](CC[C@H]12)C3	1	> 10	2
COC(=O)[C@]1(C)CCC[C@@]2(C)[C@@H]3CC[C@@H]4C[C@]3(C=C4C=O)CC[C@@H]21	5	0.006	400
C[C@@]12CCC[C@@](C)(C(=O)O)[C@H]1CC[C@@]13C[C@@H](CC[C@@H]21)[C@]1(CO)O[C@H]31	100	> 10	60
C[C@@]12CCC[C@@](C)(C(=O)O)[C@H]1CC(=O)[C@@]13C[C@@H](CC[C@H]12)[C@H](O)C3	4	> 10	20
C[C@@]12CCC[C@@](C)(C(=O)O)[C@H]1CC[C@]13C=C(CO)[C@H](CC[C@H]12)C3	800	> 10	10
C[C@@]12CCC[C@@](C)(C(=O)O)[C@H]1CC[C@]13C=C(C(=O)O)[C@H](CC[C@H]12)C3	7500	0.003	2100

Source: ChEMBL document CHEMBL3351835, “Anti-inflammatory diterpenoids from the root bark of Acanthopanax gracilistylus” (J Nat Prod, 2014)
